Patent US6407112B1, “Optically active tetrahydrobenzindole derivative” (Meiji Seika Kaisha, Ltd., priority 1998, dated 2002)
pKi: −log10 of the molar value. Read-outs that look alike come from different tables or passages of the source.

Assays:
[1] = target: T1, cloned human 5-HT7 receptor (Homo sapiens, UniProt P34969); assay: 5-HT7 receptor-binding assay ([3H]-5CT); details: for Selectivity (ratio of Ki (5-HT2) with Ki (5-HT7)): Ki (5-HT2, rat cortex) / Ki (5-HT7, cloned human)
T1 construct: expressed in transfected cells
T1 sequence (P34969 whole entry): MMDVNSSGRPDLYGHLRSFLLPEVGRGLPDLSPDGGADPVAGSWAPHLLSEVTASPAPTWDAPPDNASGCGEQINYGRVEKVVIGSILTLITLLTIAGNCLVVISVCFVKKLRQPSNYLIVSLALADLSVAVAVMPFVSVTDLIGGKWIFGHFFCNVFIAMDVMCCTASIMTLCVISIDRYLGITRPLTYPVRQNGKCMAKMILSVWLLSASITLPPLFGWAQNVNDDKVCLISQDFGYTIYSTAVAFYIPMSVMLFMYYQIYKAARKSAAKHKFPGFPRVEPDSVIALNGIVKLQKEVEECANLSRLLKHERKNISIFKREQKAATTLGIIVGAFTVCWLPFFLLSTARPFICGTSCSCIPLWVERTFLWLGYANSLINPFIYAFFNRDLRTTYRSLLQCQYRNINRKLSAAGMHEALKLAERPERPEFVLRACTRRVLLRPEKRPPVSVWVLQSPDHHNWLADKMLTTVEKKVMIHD
Protocol: 5-HT7 Receptor-binding Assay
Membranes from culture cells expressing cloned human 5-HT7 receptor were harvested and homogenized in 50 mM Tris-HCl assay buffer (pH 7.4) containing 10 mM MgCl2 and 0.5 mM EDTA with a potter-type homogenizer, and the suspension was centrifuged at 4° C., 39,000×g for 20 minutes. The resulting pellet was resuspended in the assay buffer at a proportion of 1 ml per an amount of a piece of culture petri dish having a diameter of 10 cm, and homogenized again.
The incubation was terminated by rapid filtration through GB/B filter, washed with 6 ml of ice-cold 50 mM Tris-HCl buffer (pH 7.4). The bound radioactivity was determined by liquid scintillation counter. While, non-specific binding was determined in the presence of 10 μM metergoline. The specific binding was calculated from the bound radioactivity after subtraction of non-specific binding.

[2] = target: T2, 5-HT2 receptor (rat cerebral cortex P2 fraction) (Rattus norvegicus, UniProt P14842); assay: 5-HT2 receptor-binding assay ([3H]ketanserin)
T2 construct: Rat cerebral cortex was homogenized in 10 volumes of 0.32 M sucrose solution; from tissue; host or cells: rat cerebral cortex, P2 membrane fraction
T2 sequence (P14842 whole entry): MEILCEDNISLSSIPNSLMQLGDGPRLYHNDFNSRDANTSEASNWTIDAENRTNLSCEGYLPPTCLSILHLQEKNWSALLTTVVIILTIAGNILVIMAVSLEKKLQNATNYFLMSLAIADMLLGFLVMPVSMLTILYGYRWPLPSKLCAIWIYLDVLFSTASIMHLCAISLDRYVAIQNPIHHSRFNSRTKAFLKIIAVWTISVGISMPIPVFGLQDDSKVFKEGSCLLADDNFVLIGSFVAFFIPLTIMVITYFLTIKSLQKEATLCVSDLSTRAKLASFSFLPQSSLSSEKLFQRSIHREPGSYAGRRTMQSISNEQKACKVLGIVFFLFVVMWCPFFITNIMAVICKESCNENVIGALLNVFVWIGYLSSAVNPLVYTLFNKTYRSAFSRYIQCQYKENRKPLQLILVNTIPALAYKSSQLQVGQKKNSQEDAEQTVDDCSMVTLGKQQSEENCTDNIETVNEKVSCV
Protocol: 5-HT2 Receptor-binding Assay
Rat cerebral cortex was homogenized in 10 volumes of 0.32 M sucrose solution. The supernatant obtained by centrifuging at 900×g for 10 minutes was further centrifuged at 11,500×g for 20 minutes. The pellet was resuspended in 50 mM Tris-HCl buffer (pH 7.4) and then centrifuged at 39,900×g for 20 minutes. The final pellet was used a P2 fraction.
P2 fraction was incubated in 50 mM tris-HCl buffer (pH 7.4) containing 1 nM [^3H]ketanserin and the compound of the present invention at 37° C. for 15 minutes and terminated by rapid filtration through GF/B filters. The bound radioactivity was determined by liquid scintillation counter. While, non-specific binding was determined in the presence of 10 μM ketanserin. Thus, the specific binding was calculated from the bound radioactivity after the subtraction of non-specific binding.

[3] = rat cerebral cortex P2 fraction, 1 nM [3H]ketanserin, 37° C., 15 minutes, Ki calculated from IC50, read-out: Receptor Binding Affinity Ki Value (5-HT2)
[4] = membranes of cultured cells expressing cloned human 5-HT7 receptor, 1 nM [3H]-5CT, 37° C., 30 minutes, Ki calculated from IC50, read-out: Receptor Binding Affinity Ki Value (5-HT7)

Row | SMILES | Selectivity (ratio of Ki (5-HT2) with Ki (5-HT7)) [1] | pKi [2, 3] | pKi [1] | pKi [2] | pKi [1, 4]
1 | COc1ccccc1N1CCN(CCCCC23CCCc4cccc(c42)NC3=O)CC1 (racemic) [Racemic Mixture of Synthesis Example 14, reference compound] | 7 | 7.22 |  |  | 
2 | O=C1Nc2cccc3c2C1(CCCCN1CC=C(c2ccccc2)CC1)CCC3 (racemic) [Racemic Mixture of Synthesis Example 15, reference compound] | 10 |  | 8.05 | 7.04 | 
3 | CN(C)C(=O)n1c2c(c3ccccc31)CCN(CCCCC13CCCc4cccc(c41)NC3=O)C2 (racemic) [Racemic Mixture of Synthesis Example 17, reference compound] | 121 | 6.01 |  |  | 8.10
4 | O=C1Nc2cccc3c2C1(CCCCN1CCc2ccccc2C1)CCC3 (racemic) [Racemic Mixture of Synthesis Example 18, reference compound] | 79 | 6.20 |  |  | 8.10
5 | CNC(=O)Cn1c2c(c3ccccc31)CCN(CCCCC13CCCc4cccc(c41)NC3=O)C2 (racemic) [Racemic Mixture of Synthesis Example 22, reference compound] | >278 | < 6.00 |  |  | 8.44
6 | COc1ccccc1N1CCN(CCCC[C@@]23CCCc4cccc(c42)NC3=O)CC1 [Synthesis Example 14, (S)-2a-(4-(4-(2-methoxyphenyl)piperazinyl)butyl)-2a,3,4,5-tetrahydro-1H-benz[cd]indol-2-one] | 49 | 7.08 |  |  | 8.77
7 | O=C1Nc2cccc3c2[C@@]1(CCCCN1CC=C(c2ccccc2)CC1)CCC3 [Synthesis Example 15, (S)-2a-(4-(4-phenyl-1,2,3,6-tetrahydropyridin)-1-ylbutyl)-2a,3,4,5-tetrahydro-1H-benz[cd]indol-2-one] | 32 |  | 8.89 | 7.38 | 
8 | CN(C)C(=O)n1c2c(c3ccccc31)CCN(CCCC[C@@]13CCCc4cccc(c41)NC3=O)C2 [Synthesis Example 17, (S)-2a-[4-(9-dimethylcarbamoyl-2,3,4,9-tetrahydro-1H-pyrido[3,4-b]indol-2-yl)-butyl]-2a,3,4,5-tetrahydro-1H-benz[cd]indol-2-one] | >250 | < 6.00 |  |  | 8.40
9 | O=C1Nc2cccc3c2[C@@]1(CCCCN1CCc2ccccc2C1)CCC3 [Synthesis Example 18, (S)-2a-(4-(1,2,3,4-tetrahydroisoquinolin-2-yl)-butyl)-2a,3,4,5-tetrahydro-1H-benz[cd]indol-2-one] | >125 | < 6.00 |  |  | 8.11
10 | CNC(=O)Cn1c2c(c3ccccc31)CCN(CCCC[C@@]13CCCc4cccc(c41)NC3=O)C2 [Synthesis Example 22, (S)-2a-(4-(9-methylcarbamoylmethyl-2,3,4,9-tetrahydro-1H-pyrido[3,4-b]indol-2-yl)butyl)-2a,3,4,5-tetrahydro-1H-benz[cd]indol-2-one] | >667 | < 6.00 |  |  | 8.82
